Test results as given in patent US12465614B2, “Budesonide 21-phosphate salts and pharmaceutical compositions containing the same” (GENETIC S.P.A., priority 2020, dated 2025).
“Also recorded” adds a separate entry of the source.

Legend:
[1] = tested on: mice with OVA-induced allergic asthma; assay: Circulating leukocyte cell counts (Experimental Groups II); format: in vivo; details: i.n.; FB all tested doses (0.3, 1.0, 3.0 nmol/animal); B and F 3 nmol/animal
Procedure: Male Balb/c SPF mice (25*2 g, 6-week-old) were purchased from the animal house facilities at the São Paulo School of Medicine (Federal University of São Paulo, Brazil). They were group-housed in a temperature-controlled room at 22° C. with a 12/12-hour light/dark cycle and allowed free access to food and water. The study is in agreement with the Ethical Principles for Animal Research established by the Brazilian College for Animal Experimentation (COBEA). According to the internal laboratory rules, euthanasia is performed if severe distress related to the test agents developed during the experiment. […] The compounds were dissolved in DMSO (Sigma Chemical Co., St. Louis, MO) at concentrations at which the determined dose per animal results from the intraperitoneal administration of 100 μl of solution (1:10 DMSO) and intra-nasal (i.n.) administration of 10 μl/animal (5 μl/nostril) of the solutions. Mice were sensitized with two subcutaneous injections of 0.4 ml of OVA/Al(OH)3, with an interval of 7 days (Sham animals received the Al(OH)3 suspension in PBS with no OVA). Seven days after the second sensitization (i.e., 3rd week), the animals were nebulized twice a week with the 1% OVA solution (Sham and untreated OVA groups were nebulized with PBS) during 20 minutes for the next 2 weeks. Sixty minutes before the challenges (OVA nebulization) and daily during the next 4 weeks, mice were intra-nasally treated (10 μl/animal as 5 μl/nostril) with the respective compounds/vehicle. After Penh evaluation, the mice were anesthetized with inhaled isofluorane (5% v/v in O2) and blood samples were collected from the descending abdominal aorta. The mice were then euthanized by exsanguination (blood samples were collected from each animal for leukocyte cell counting), and bronchoalveolar lavage (BAL) was performed by exposing and cannulating the trachea with a polyethylene tube (1 mm outer diameter) connected to a syringe. The lungs were washed by flushing 300 μL of heparin-containing PBS solution (20 Ul/mL). The retrieved BAL lavage aliquots were obtained, and the same procedure was repeated four additional times. The samples were submitted to centrifugation (1000 g for 10 min) and the cell pellet was resuspended in 200 μL of PBS solution. Total cell counts were determined using a Neubauer chamber, and differential counting was carried out in cytospin (Fanem Mod 2400; São Paulo, Brazil) preparations stained with May-Grünwald dye. Leukocytes were classified based on normal morphological criteria.

[2] = tested on: mice with OVA-induced allergic asthma; assay: Lung hyperreactivity/Penh function, intra-nasal Bud vs Bud-21 P (Experimental Groups III); format: in vivo; details: for Penh maximal response (Emax) / area under the Penh-metacholine concentration curve (AUC): 4 weeks
Procedure: Male Balb/c SPF mice (25*2 g, 6-week-old) were purchased from the animal house facilities at the São Paulo School of Medicine (Federal University of São Paulo, Brazil). They were group-housed in a temperature-controlled room at 22° C. with a 12/12-hour light/dark cycle and allowed free access to food and water. The study is in agreement with the Ethical Principles for Animal Research established by the Brazilian College for Animal Experimentation (COBEA). According to the internal laboratory rules, euthanasia is performed if severe distress related to the test agents developed during the experiment. In Protocol 3, the test compounds budesonide (Bud; MW: 430.53 g/mol) and budesonide 21-phosphate free acid (Bud-21 P; […] The compounds were dissolved in 10% sterile saline+90% DMSO (Sigma Chemical Co., St. Louis, MO) at the correspondent concentrations at which the above mentioned doses per animal result from the intra-nasal (i.n.) administration of 10 μl/animal (5 μl/nostril) of each of the solutions. Mice were sensitized with two subcutaneous injections of 0.4 ml of OVA/Al(OH)3, with an interval of 7 days (Sham animals received the Al(OH)3 suspension in PBS with no OVA). Seven days after the second sensitization (i.e., 3rd week), the animals were nebulized twice a week with the 1% OVA solution (Sham and untreated OVA groups were nebulized with PBS) during 20 minutes for the next 2 weeks. Sixty minutes before the challenges (OVA nebulization) and daily during the next 4 weeks, mice were intra-nasally treated (10 μl/animal as 5 μl/nostril) with the respective compounds/vehicle. Airway responsiveness in conscious, spontaneously breathing animals was measured at the end of the 4th week (i.e., after 2 weeks of OVA challenges+treatments), 24 h after the last OVA/PBS challenge via whole body plethysmography (Buxco Europe Ltd, Winchester, UK), as previously described. Experiments were carried out in a quiet room by an investigator who was unaware of the nature of treatments. Aerosolized saline (50 μl/mouse during 60 s) and then the muscarinic agonist metacholine (MCh) at increasing concentrations (3.12, 6.25, 12.5 and 25.0 mg/ml in PBS) was nebulized through an inlet of the main chamber for 3 min each to induce bronchoconstriction and readings were taken and averaged for 6 min following each nebulization. After 20 min, the baseline values usually returned at the end of this period. Enhanced pause (Penh) was measured as an indicator of bronchoconstriction and consequent increase of airway resistances: Penh=[(expiration time/relaxation time)−1][…](maximum expiration flow/maximum inspiration flow)

[3] = all tested doses (3, 10 and 30 nmol/animal/day) i.n.
[4] = highest dose 30 nmol/animal/day i.n.

Structure (SMILES)	circulating macrophages [1]	Penh maximal response (Emax) [2, 3]	area under the Penh-metacholine concentration curve (AUC) [2, 3]	beneficial effect on bronchoconstriction response to methacholine (Penh function) ([2]; 3 and 10 nmol/animal/day i.n.)	Penh maximal response (Emax) [2, 4]	area under the Penh-metacholine concentration curve (AUC) [2, 4]
CCCC1OC2CC3C4CCC5=CC(=O)C=CC5(C)C4C(O)CC3(C)C2(C(=O)COP(=O)(O)O)O1 (stereo not drawn) [B, Budesonide 21-phosphate]	significantly reduced the number of macrophages; also recorded: mild decrease of circulating macrophages	significantly reduced	significantly reduced			
CCCC1OC2CC3C4CCC5=CC(=O)C=CC5(C)C4C(O)CC3(C)C2(C(=O)CO)O1 (stereo not drawn) [Bud, 11β,21-dihydroxy-16α,17α-(butylidenebis(oxy))pregna-1,4-diene-3.20-dione]				absent	significant reduction of this response just at the highest dose	significant reduction of this response just at the highest dose
